Structures are written as SMILES. pEC50: −log10 of the molar value.

These results are taken from paper PMC2233883 (The Journal of General Physiology, 2004).

The target of the test is T1, MloK1 (Mesorhizobium japonicum, UniProt Q98GN8).
T1 sequence (Q98GN8 1-355): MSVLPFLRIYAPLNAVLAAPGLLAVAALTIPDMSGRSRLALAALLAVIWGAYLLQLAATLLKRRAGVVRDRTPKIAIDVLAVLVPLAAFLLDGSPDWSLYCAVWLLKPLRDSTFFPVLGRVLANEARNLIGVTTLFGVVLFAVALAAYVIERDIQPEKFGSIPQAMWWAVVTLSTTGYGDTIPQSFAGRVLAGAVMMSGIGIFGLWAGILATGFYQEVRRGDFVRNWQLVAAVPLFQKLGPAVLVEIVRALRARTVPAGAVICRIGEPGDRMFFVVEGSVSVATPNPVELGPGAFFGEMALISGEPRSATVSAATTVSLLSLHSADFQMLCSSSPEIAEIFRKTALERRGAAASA
Put plainly: […]+ uptake into MloK1-reconstituted liposomes, dose-response. Format: biochemical.

`Nc1nc2c(ncn2[C@@H]2O[C@@H]3COP(=O)(O)O[C@H]3[C@H]2O)c(=O)[nH]1` [cGMP]: the pEC50 (in general, the negative decadic logarithm of the EC50, by convention in mol/L) is 6.22.
